These results are taken from patent US7652020B2, “Compounds for the treatment of inflammatory disorders” (Schering Corporation, priority 2004, dated 2010).

The target in this experiment is T1, purified catalytic domain of recombinant human TACE (rhTACEc) (Homo sapiens, UniProt P78536, N452Q/S266A).
T1 construct: Residue 215 to 477 with two mutation (S266A and N452Q) and a 6×His tail; 6xHis (C); made in house; host or cells: baculovirus/Hi5 insect cells
Nature of the experiment: TACE kinetic assay: cleavage of internally quenched peptide substrate SPDL-3, fluorescence. The class given is biochemical. The settings on record: TACE inhibitory activity, class symbols; read-out: Ki.

T1 sequence (P78536 215-477 S266A/N452Q): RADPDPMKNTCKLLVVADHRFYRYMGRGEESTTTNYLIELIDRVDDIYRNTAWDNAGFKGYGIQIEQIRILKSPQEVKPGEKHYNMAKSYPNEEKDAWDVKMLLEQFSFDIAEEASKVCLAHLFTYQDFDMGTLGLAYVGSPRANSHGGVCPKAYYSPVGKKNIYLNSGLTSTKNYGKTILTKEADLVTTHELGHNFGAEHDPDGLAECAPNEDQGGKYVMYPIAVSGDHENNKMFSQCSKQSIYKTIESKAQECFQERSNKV

On to `Cn1c([C@H](O)[C@@H](O)C(=O)NCC2CCN(c3ccc(F)cc3C#N)CC2)nc2ccccc21` [Compound 2394], for which the Ki – broadly, the equilibrium dissociation constant of an inhibitor or competing ligand from its target – was over 1 µM.
For `Cn1ccnc1[C@H](O)[C@@](C)(O)C(=O)NCC1CCN(c2ccc(F)cc2C#N)CC1` [Compound 2395], the Ki lay in the range of 0.1 to 1 µM.
For `Cn1cc(-c2ccccc2)nc1[C@H](O)[C@@H](O)C(=O)NCC1CCN(c2ccc(F)cc2C#N)CC1` [Compound 2396], the Ki was over 1 µM.
`Cn1ccnc1[C@H](O)[C@@H](O)C(=O)NCc1ccc(-n2cccn2)cc1` [Compound 2397]: the Ki is over 1 µM.
The value for `O=C(NCc1ccc(-c2ccccc2OC(F)(F)F)cn1)[C@H](O)[C@@H](O)c1ccccn1` [Compound 2398] was over 1 µM; that for `Cc1nnc([C@H](O)[C@@H](O)C(=O)NCC2CCN(c3ccc(F)cc3C#N)CC2)n1C` [Compound 2399] was over 1 µM.
With `Cc1cnc([C@H](O)[C@@H](O)C(=O)NCC2CCN(c3ccc(F)cc3C#N)CC2)n1C` [Compound 2400], the Ki lay in the range of 0.1 to 1 µM.
With `Cn1c(-c2ccccc2)cnc1[C@H](O)[C@@H](O)C(=O)NCC1CCN(c2ccc(F)cc2C#N)CC1` [Compound 2402], the Ki was over 1 µM.
Take `O=C([C@H](O)[C@@H](O)c1cncc(-c2ccc(-c3ccccc3)cc2)n1)N1Cc2ccccc2C1` [Compound 2403]: the Ki was over 1 µM.
Turning to `C[C@@H](NC(=O)[C@H](O)[C@@H](O)C(=O)N1CCCCC1)c1ccc(-n2cccn2)cc1` [Compound 2408], the Ki was in the range of 0.02 to 0.1 µM.
The value for `C[C@@H]1CCC[C@H](C)N1C(=O)[C@H](O)[C@@H](O)C(=O)N[C@H](C)c1ccc(-n2cccn2)cc1` [Compound 2409] was 0.1 to 1 µM.
As for `C[C@@H](NC(=O)[C@H](O)[C@@H](O)C(=O)N1CCCCC1c1ccccc1)c1ccc(-n2cccn2)cc1` (some centres unmarked) [Compound 2410], the Ki was under 0.02 µM.
The value for `C[C@@H](NC(=O)[C@](C)(O)[C@@H](O)C(=O)N1CCCCC1c1ccccc1)c1ccc(-n2cccn2)cc1` (some centres unmarked) [Compound 2411] was over 1 µM; that for `C[C@@H](NC(=O)[C@H](O)[C@@H](O)C(=O)N1CCCC(C)(C)C1)c1ccc(-n2cccn2)cc1` [Compound 2412] was 0.1 to 1 µM; that for `C[C@@H](NC(=O)[C@H](O)[C@@H](O)C(=O)N1CCNCC1c1ccccc1)c1ccc(-n2cccn2)cc1` (some centres unmarked) [Compound 2414] was 0.02 to 0.1 µM.
The value for `C[C@@H](NC(=O)[C@H](O)[C@@H](O)C(=O)N1CCCCC1c1cccc(Cl)c1)c1ccc(-n2cccn2)cc1` (some centres unmarked) [Compound 2415] was 0.02 to 0.1 µM.
`C[C@@H](NC(=O)[C@H](O)[C@@H](O)C(=O)N1CCCCC1c1nccs1)c1ccc(-n2cccn2)cc1` (some centres unmarked) [Compound 2416]: the Ki lay within 0.02 to 0.1 µM.
The value for `C[C@@H](NC(=O)[C@H](O)[C@@H](O)C(=O)N1CCCCC1c1csc(N)n1)c1ccc(-n2cccn2)cc1` (some centres unmarked) [Compound 2417] was 0.02 to 0.1 µM; that for `C[C@@H](NC(=O)[C@H](O)[C@@H](O)C(=O)N1CCCCC1c1ccc(Cl)cc1)c1ccc(-n2cccn2)cc1` (some centres unmarked) [Compound 2418] was 0.02 to 0.1 µM.
The value for `C[C@@H](NC(=O)[C@H](O)[C@@H](O)C(=O)N1CC2CC1CN2c1ccc(Cl)cc1)c1ccc(-n2cccn2)cc1` (some centres unmarked) [Compound 2419] was 0.1 to 1 µM; that for `C[C@@H](NC(=O)[C@H](O)[C@@H](O)C(=O)N1CCN2CCC[C@H]2C1)c1ccc(-n2cccn2)cc1` [Compound 2420] was 0.1 to 1 µM.
The value for `C[C@@H](NC(=O)[C@H](O)[C@@H](O)C(=O)N1CCCc2ccccc21)c1ccc(-n2cccn2)cc1` [Compound 2421] was 0.1 to 1 µM; that for `C[C@@H](NC(=O)[C@H](O)[C@@H](O)C(=O)N1CCOCC1)c1ccc(-n2cccn2)cc1` [Compound 2422] was 0.02 to 0.1 µM.
Regarding `C[C@@H](NC(=O)[C@H](O)[C@@H](O)C(=O)N1CCNCC1)c1ccc(-n2cccn2)cc1` [Compound 2423], the Ki fell in the range of 0.1 to 1 µM.
Regarding `C[C@@H](NC(=O)[C@H](O)[C@@H](O)C(=O)N1C[C@H]2CNC[C@H]2C1)c1ccc(-n2cccn2)cc1` [Compound 2424], the Ki was 0.1 to 1 µM.
With `C[C@@H](NC(=O)[C@H](O)[C@@H](O)C(=O)N1CCN(c2ccccc2)C(=O)C1)c1ccc(-n2cccn2)cc1` [Compound 2425], the Ki lay within 0.1 to 1 µM.
The value for `C[C@@H](NC(=O)[C@H](O)[C@@H](O)C(=O)N1CCc2ccccc2C1)c1ccc(-n2cccn2)cc1` [Compound 2438] was under 0.02 µM.
The value for `C[C@@H](NC(=O)[C@H](O)[C@@H](O)C(=O)N1CCc2ccc(F)cc2C1)c1ccc(-n2cccn2)cc1` [Compound 2439] was under 0.02 µM.
The value for `C[C@@H](NC(=O)[C@](C)(O)[C@@H](O)C(=O)N1CCc2ccc(F)cc2C1)c1ccc(-n2cccn2)cc1` [Compound 2440] was 0.02 to 0.1 µM.
`C[C@@H](NC(=O)[C@H](O)[C@@H](O)C(=O)N1CCc2ccccc21)c1ccc(-n2cccn2)cc1` [Compound 2441]: the Ki is 0.02 to 0.1 µM.
For `COc1cc2c(cc1OC)C(c1ccccc1)N(C(=O)[C@H](O)[C@@H](O)C(=O)N[C@H](C)c1ccc(-n3cccn3)cc1)CC2` (some centres unmarked) [Compound 2442], the Ki is under 0.02 µM.
The value for `C[C@@H](NC(=O)[C@H](O)[C@@H](O)C(=O)N1CCc2cc(Cl)c(Cl)cc2C1c1ccccc1)c1ccc(-n2cccn2)cc1` (some centres unmarked) [Compound 2443] was under 0.02 µM.
The value for `C[C@@H](NC(=O)[C@H](O)[C@@H](O)C(=O)N1CCc2cc(Cl)ccc2C1c1ccccc1)c1ccc(-n2cccn2)cc1` (some centres unmarked) [Compound 2444] was under 0.02 µM; that for `CNc1nc(C2c3ccccc3CN2C(=O)[C@H](O)[C@@H](O)C(=O)N[C@H](C)c2ccc(-n3cccn3)cc2)cs1` (some centres unmarked) [Compound 2445] was under 0.02 µM; that for `Cc1cccc2c1CN(C(=O)[C@H](O)[C@@](C)(O)C(=O)N[C@H](C)c1ccc(-n3cccn3)cc1)C2` [Compound 2446] was 0.02 to 0.1 µM.
The value for `N#Cc1cc(F)ccc1N1CCC(CNC(=O)[C@H](O)[C@@H](N)C(=O)N2CCCC2)CC1` [Compound 2456] was over 1 µM; that for `N#Cc1cc(F)ccc1N1CCC(CNC(=O)[C@H](N)[C@@H](O)C(=O)N2CCCC2)CC1` [Compound 2460] was over 1 µM.
Regarding `C[C@H](c1ccc(-n2cccn2)cc1)N1CCO[C@H]([C@@H](O)C(=O)N2Cc3ccccc3C2)C1=O` [Compound 2474], the Ki is over 1 µM.
The value for `CO[C@@H](C(=O)NCc1ccc(-c2ccc(F)cc2OCCC(C)(C)C)cc1)[C@@H](O)C(=O)N1Cc2cccnc2C1` [Compound 2475] was 0.02 to 0.1 µM; that for `CO[C@@H](C(=O)NCc1ccc(-c2ccc(F)cc2OCCC2CCCCC2)cc1)[C@@H](O)C(=O)N1Cc2cccnc2C1` [Compound 2476] was 0.02 to 0.1 µM; that for `CCOc1cc(F)ccc1-c1ccc(CNC(=O)[C@H](OC)[C@@H](O)C(=O)N2Cc3cccnc3C2)cc1` [Compound 2477] was 0.1 to 1 µM.
Take `C[C@H](c1ccc(-n2cccn2)cc1)N1CCO[C@H]([C@@H](O)C(=O)N2CCCC2c2ccccc2)C1=O` (some centres unmarked) [Compound 2478]: the Ki is over 1 µM.
Turning to `CC(c1cccc(Cl)c1)N(C)C(=O)[C@H](O)[C@@H](O)C(=O)N[C@H](C)c1ccc(-n2cccn2)cc1` (some centres unmarked) [Compound 2480], the Ki was 0.02 to 0.1 µM.
Consider `CCN(C(=O)[C@H](O)[C@@H](O)C(=O)N[C@H](C)c1ccc(-n2cccn2)cc1)C(C)c1cccc(Cl)c1` (some centres unmarked) [Compound 2481], for which the Ki was in the range of 0.1 to 1 µM.
The value for `CC(C)CN(C(=O)[C@H](O)[C@@H](O)C(=O)N[C@H](C)c1ccc(-n2cccn2)cc1)C(C)c1cccc(Cl)c1` (some centres unmarked) [Compound 2482] was over 1 µM; that for `CC(c1cccc(Cl)c1)N(C(=O)[C@H](O)[C@@H](O)C(=O)N[C@H](C)c1ccc(-n2cccn2)cc1)C1CC1` (some centres unmarked) [Compound 2483] was over 1 µM; that for `CC(c1cccc(Cl)c1)N(CC1CC1)C(=O)[C@H](O)[C@@H](O)C(=O)N[C@H](C)c1ccc(-n2cccn2)cc1` (some centres unmarked) [Compound 2485] was over 1 µM.
For the molecule `CCCN(C(=O)[C@H](O)[C@@H](O)C(=O)N[C@H](C)c1ccc(-n2cccn2)cc1)C(C)c1cccc(Cl)c1` (some centres unmarked) [Compound 2486], the Ki was over 1 µM.
The value for `CCC(c1cccc(Cl)c1)N(C)C(=O)[C@H](O)[C@@H](O)C(=O)N[C@H](C)c1ccc(-n2cccn2)cc1` (some centres unmarked) [Compound 2487] was 0.02 to 0.1 µM.
For the molecule `C[C@@H](NC(=O)[C@H](O)[C@@H](O)C(=O)N(C)C1Cc2ccccc2C1)c1ccc(-n2cccn2)cc1` [Compound 2489], the Ki lay within 0.02 to 0.1 µM.
The value for `C[C@@H](NC(=O)[C@H](O)[C@@H](O)C(=O)N1CCC(=O)N1c1cccc(Cl)c1)c1ccc(-n2cccn2)cc1` [Compound 2494] was 0.1 to 1 µM; that for `C[C@@H](NC(=O)[C@H](O)[C@@H](O)C(=O)N1CCCN1c1cccc(Cl)c1)c1ccc(-n2cccn2)cc1` [Compound 2495] was 0.1 to 1 µM.
In the case of `C[C@@H](NC(=O)[C@H](O)[C@@H](O)C(=O)N1CCCN1c1ccccc1)c1ccc(-n2cccn2)cc1` [Compound 2496], the Ki was 0.1 to 1 µM.
Regarding `C[C@@H](NC(=O)[C@H](O)[C@@H](O)C(=O)N1CCC[C@@H]1c1csc2nccn12)c1ccc(-n2cccn2)cc1` [Compound 2506], the Ki is under 0.02 µM.
The value for `C[C@@H](NC(=O)[C@H](O)[C@@H](O)C(=O)N1CCC[C@@H]1c1cn2ccccc2n1)c1ccc(-n2cccn2)cc1` [Compound 2507] was under 0.02 µM; that for `CCOC(=O)c1cccn2cc([C@H]3CCCN3C(=O)[C@H](O)[C@@H](O)C(=O)N[C@H](C)c3ccc(-n4cccn4)cc3)nc12` [Compound 2508] was 0.02 to 0.1 µM.
As to `CNc1nc([C@H]2CC(F)(F)CN2C(=O)[C@H](O)[C@@H](O)C(=O)N[C@H](C)c2ccc(-n3cccn3)cc2)cs1` [Compound 2567], the Ki was under 0.02 µM.
The value for `CC#CCOc1cc([C@@H](C)NC(=O)[C@H](O)[C@@H](O)C(=O)N2CCC[C@@H]2c2cccc(Cl)c2)ccc1-n1cccn1` [Compound 2571] was under 0.02 µM; that for `CC#CCOc1cc([C@@H](C)NC(=O)[C@H](O)[C@@H](O)C(=O)N2CC=CC2c2cccc(Cl)c2)ccc1-n1cccn1` (some centres unmarked) [Compound 2572] was under 0.02 µM.
